Measurements reported in patent publication US20230095498A1, “NOVEL COMPOUND AND USE THEREOF” (THE CATHOLIC UNIVERSITY OF KOREA INDUSTRY-ACADEMIC …, priority 2020, published 2023).

Tests used:
HK-2 cells [1] = experiment: Cell viability (CCK-8) in HK-2 cells under cytotoxicity induction by tacrolimus; format: cell-based, human; settings: for survival rate: Nil = 100%
Protocol: The human kidney-2 cell line used in this experiment was purchased from ATCC (Manassas, Va., USA) and used. These cells were cultured in Dulbecco's modified Eagle's medium (DMEM; Wisent) containing 10% fetal bovine serum (FBS; Wisent, St. Bruno, Que, Canada), 100 U/mL penicillin, and […] streptomycin (Wisent) in 5% CO2, 37° C. incubator. After 80% seeding of HK-2 cells, 24 hours later, tacrolimus was treated at a concentration of 60 to 70 μg/ml and SD911 was treated at a concentration of 1 to 20 μM and reacted for 3 to 12 hours. In the case of cells isolated as a single cell from mouse spleen tissue, after seeding 2×10^5/cell/200 μl in a 96-well plate in triplicate, each SD911 compound was treated with 1 to 20 μM and reacted for 3 days. Thereafter, the cell counting kit-8 (CCK-8, Dojindo molecular, Rockville, Mass., USA) reagent was treated for 2 hours, and then measured and analyzed at absorbance of 450 nm. The cytoprotective effect of an SD911 compound was investigated under HK-2 cytotoxicity induction by tacrolimus (Tac).

mouse splenocytes = experiment: Toxicity test (CCK-8) on mouse splenocytes; format: cell-based; settings: SD911 1, 5, 20 μM, 3 days
Protocol: After 80% seeding of HK-2 cells, 24 hours later, tacrolimus was treated at a concentration of 60 to 70 μg/ml and SD911 was treated at a concentration of 1 to 20 μM and reacted for 3 to 12 hours. In the case of cells isolated as a single cell from mouse spleen tissue, after seeding 2×10^5/cell/200 μl in a 96-well plate in triplicate, each SD911 compound was treated with 1 to 20 μM and reacted for 3 days. Thereafter, the cell counting kit-8 (CCK-8, Dojindo molecular, Rockville, Mass., USA) reagent was treated for 2 hours, and then measured and analyzed at absorbance of 450 nm.

HK-2 cells [2] = experiment: Reactive oxygen species (ROS) measurement by DCF-DA flow cytometry in HK-2 cells; format: cell-based, human
Protocol: After 80% seeding of HK-2 cells, 24 hours later, tacrolimus was treated at a concentration of 60 to 70 μg/ml and SD911 was treated at a concentration of 1 to 20 μM and reacted for 3 to 12 hours, and then 10 μM of DCF-DA (Molecular probes, Carlebad, Calif., USA) was reacted at 37° C. for 1 hour. Then, cells were harvested and analyzed with 0.05% Trypsin and 0.53 mM EDTA. For analysis, aggregated or broken cells were removed using FSC (forward side scatter) and SSC (side scatter) scatter plots (dot plot) using a FACS Calibur (BD bioscience, San Jose, Calif., USA), and the fluorescence fraction was analyzed in the FL-1H channel (Excitation 488 nm, Emission 513 to 535 nm). Based on the cell viability identification results of Example 1, the ROS production inhibitory effect on 1, 5, and 10 μM of SD911 was investigated. […] In […] cells, the effect of SD911 on ROS production inhibitory ability and apoptosis reduction was identified. Based on the cell viability test results of Example 2 (FIG. 2), inhibitory effects of SD911 on ROS production were investigated at 1, 5, and 10 μM of SD911.

IL-17 = IL-17 ELISA of cell culture medium under anti-CD3 immune activity; format: cell-based, mouse; settings: anti-CD3 stimulation, 3 days, compared to group not treated with SD911
Protocol: (§1) Cell culture for ELISA was coated with 250 ul of mouse anti-CD3 antibody diluted in ccPBS with 0.5 μg/ml in a 24-well plate as many as the number of conditions. After incubation for 2 hours, the supernatant was removed and the cells were seeded at 1×10^6/cells/1 ml and then treated with each drug. After culturing for 3 days, only the cell culture medium was removed and used as IL-10 and IL-17 ELISA samples.

IL-10 = IL-10 ELISA of cell culture medium under anti-CD3 immune activity; format: cell-based, mouse; settings: anti-CD3 stimulation, 3 days, compared to group not treated with SD911
Protocol: as §1

[3] = target: T1, S1P (Sphingosine 1-phosphate) lyase (Mus musculus, UniProt Q8R0X7); experiment: S1P lyase (SPL) activity in liver lysate, HPLC; format: biochemical; settings: 5 uM inhibitor, 37° C. for 1 hour
T1 construct: After homogenizing the liver tissue of an experimental animal in a lysis buffer; from tissue; host or cells: liver tissue homogenate of an experimental animal
T1 sequence (Q8R0X7 1-568): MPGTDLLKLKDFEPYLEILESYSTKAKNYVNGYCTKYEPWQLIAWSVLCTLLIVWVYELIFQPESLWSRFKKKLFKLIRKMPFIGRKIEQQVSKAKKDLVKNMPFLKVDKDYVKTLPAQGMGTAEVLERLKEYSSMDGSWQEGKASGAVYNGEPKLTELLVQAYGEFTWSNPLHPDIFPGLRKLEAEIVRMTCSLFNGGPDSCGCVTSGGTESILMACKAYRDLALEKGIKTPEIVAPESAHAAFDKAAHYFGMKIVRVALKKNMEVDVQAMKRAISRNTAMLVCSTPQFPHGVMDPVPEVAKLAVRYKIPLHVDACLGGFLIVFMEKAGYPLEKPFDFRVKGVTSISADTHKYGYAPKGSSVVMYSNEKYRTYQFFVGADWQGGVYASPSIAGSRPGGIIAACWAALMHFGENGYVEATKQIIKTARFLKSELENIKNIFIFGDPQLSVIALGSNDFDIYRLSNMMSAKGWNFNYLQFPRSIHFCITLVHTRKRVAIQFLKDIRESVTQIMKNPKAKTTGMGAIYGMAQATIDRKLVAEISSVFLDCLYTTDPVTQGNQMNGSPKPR
Protocol: After homogenizing the liver tissue of an experimental animal in a lysis buffer, protein quantification was performed to secure the concentration, and a mixed solution was prepared under the conditions shown in Table 1 below and reacted at 37° C. for 1 hour.

HK-1 cells = experiment: Tac-induced apoptosis analysis with PI and Annexin-V; format: cell-based, human; settings: Tac combined with SD911 (10 μM), compared to Tac alone
Protocol: In HK-1 cells, the effect of SD911 on ROS production inhibitory ability and apoptosis reduction was identified. Based on the cell viability test results of Example 2 (FIG. 2), inhibitory effects of SD911 on ROS production were investigated at 1, 5, and 10 μM of SD911.

[4] = tested on: immunodeficient mice (NSG) injected with transplantation rejection patient PBMCs; experiment: Transplantation rejection patient imitation avatar (humanized NSG mouse) model, immunosuppressant effect; format: in vivo; settings: group injected with transplantation rejection patient PBMCs
Excerpt: In order to produce the transplantation rejection avatar animal model of an embodiment of the present invention, PBMCs (peripheral blood mononuclear cells) derived from normal or transplantation rejection patients were intravascularly injected into 8 to 10 week old immunodeficient mice (NSG) at 5×10^6/mice. After 3 weeks, the engraftment of normal or transplantation rejection patients (kidney transplantation rejection patients) cells in the blood was identified in blood cells. Thereafter, the mice were sacrificed 4 weeks after cell transplantation to identify the infiltration of human cells and histological changes in the tissue (FIG. 8).
In order to identify that the transplantation rejection patient imitation avatar model in Example 8 above was properly constructed, engraftment of human cells was analyzed through flow cytometry. Specifically, blood was obtained from the transplantation rejection humanized mice of Example 1 (normal PBMC injection group, HC; transplantation rejection patient PBMC injection group, Patient), and then cells that were positive in reaction with human antibodies were analyzed. In addition, blood […] (SCR) concentration was measured as an index for measuring kidney damage in PBMC-injected mice of normal subjects and transplantation rejection patients. SCR was measured by the quantitative enzymatic colorimetric method (Stanbio laboratory, 0430-120) by isolating serum in animal blood.
Specifically, the transplantation rejection humanized mouse model established in Example 8 above was classified as 1) a normal PBMC injection group, 2) a normal PBMC injection group treated with an immunosuppressant, 3) a transplantation rejection patient PBMC injection group, and 4) a transplantation rejection patient PBMC injection group treated with an immunosuppressant. SD911 was used as the immunosuppressant. Specifically, the animal model of Example 8 above was treated with SD911 at 3 weeks after engraftment of PBMCs. and the same amount of physiological saline was treated as a control group. […]

Structure (SMILES)	survival rate (HK-2 cells [1]; 1 μM SD911 in combination with tacrolimus) [%]	survival rate (HK-2 cells [1]; 5 μM SD911 in combination with tacrolimus) [%]	survival rate (HK-2 cells [1]; 10 μM SD911 in combination with tacrolimus) [%]	survival rate (HK-2 cells [1]; 20 μM SD911 in combination with tacrolimus) [%]	own drug toxicity (cell viability compared to Nil) (HK-2 cells [1]; SD911 alone at 1, 5, 10 and 20 μM)	toxicity on immune cells (cell viability vs Nil group) (mouse splenocytes)	ROS (DCF-DA fluorescence fraction) (HK-2 cells [2]; 1 μM SD911 combined with tacrolimus) [%]	ROS (DCF-DA fluorescence fraction) (HK-2 cells [2]; 5 μM SD911 combined with tacrolimus) [%]	ROS (DCF-DA fluorescence fraction) (HK-2 cells [2]; 10 μM SD911 combined with tacrolimus) [%]	fluorescence fraction of DCF-DA (ROS) (HK-2 cells [2]; SD911 alone at 1, 5 and 10 μM, compared to Nil)	IL-17 level (ELISA) (IL-17)	IL-10 level (ELISA) (IL-10)	reduction of S1P lyase activity compared to the control [3]	ratio of necrotic cells, apoptotic cells, and early apoptotic cells & necrotic cells (HK-1 cells)	damage to kidney tissue (GN score, IN score, Vasculitis) ([4]; SD911 at 3 weeks after engraftment, sacrifice 1 week later)	infiltration of IL-17 positive cells in kidney tissue ([4]; immunohistochemical staining)	infiltration of human CD4-positive cells in kidney tissue ([4]; immunohistochemical staining)	survival rate (HK-2 cells [1]; tacrolimus (Tac) alone) [%]	ROS (DCF-DA fluorescence fraction) (HK-2 cells [2]; tacrolimus (Tac) alone, induction of HK-2 cytotoxicity) [%]
C[C@@H]1CN(c2nnc(Oc3ccccc3)c3ccccc23)CCN1c1ccc(C#N)cn1 [SD911, 6-((R)-2-methyl-4-(1-phenoxyphthalazin-4-yl)piperazin-1-yl)pyridine-3-carbonitrile]	81.7	81.8	72.0	37.4	did not have its own drug toxicity	no significant difference compared to the Nil group	36.5	13.7	9.3	almost no difference from that of Nil	decreased IL-17	increased IL-10 in a concentration-dependent manner	about 30%	significantly alleviated compared to Tac alone	the damage to the kidney tissue was reduced	significantly reduced	significantly reduced	–	–
C=CC[C@@H]1/C=C(\C)C[C@H](C)C[C@H](OC)[C@H]2O[C@@](O)(C(=O)C(=O)N3CCCC[C@H]3C(=O)O[C@H](/C(C)=C/[C@@H]3CC[C@@H](O)[C@H](OC)C3)[C@H](C)[C@@H](O)CC1=O)[C@H](C)C[C@@H]2OC [tacrolimus, reference compound]	–	–	–	–	–	–	–	–	–	–	–	–	–	–	–	–	–	56.7	31.6
